Literature values, collected in patent publication US20090298866A1, “Indole Compounds” (priority 2006, published 2009).

Columns and labels:
[1] = system: rodent model of post-operative pain; settings: Anesthesia and Analgesia 2001, 92, 233-238; cited from earlier work
[2] = system: rat model of chronic constriction injury; settings: Anesthesia and Analgesia 2001, 93, 1012-7; cited from earlier work

## Cc1cc(Cl)ccc1S(=O)(=O)NC[C@H]1C2CCC(CC2)[C@@H]1/C=C\CCCC(=O)O [ONO-8711]
[1]
  mechanical hyperalgesia: inhibits mechanical hyperalgesia
[2]
  hyperalgesia and allodynia: reduces hyperalgesia and allodynia
